Reference: US10335411B2, “Administration of ubiquitin-activating enzyme inhibitor and radiation” (Millennium Pharmaceuticals, Inc., priority 2014, dated 2019)

What was measured:
Type in all cases: in vivo, mice
LU-01-0266 xenograft = LU-01-0266 xenograft model, Compound 1 and radiation; conditions: for Classification / Synergy score: through Day 20
Source text: (§1) The LU-01-0266 xenograft model is a human primary non-small cell lung tumor model. Approximately nine week old female BALB/c nude (Shanghai Sino-British SIPPR/BK Laboratory Animal Co., LTD.) mice were implanted subcutaneously with approximate 30 mm^3 LU-01-0266 tumor slices in the right flank. When the mean tumor volume reached approximately 173 mm^3, the animals were randomized into 10 treatment groups (n=8/group).
(§2) Compound 1 [((1R,2R,3S,4R)-2,3-dihydroxy-4-(2-(3-(trifluoromethylthio) ? phenyl)pyrazolo[1,5-a]pyrimidin-7-ylamino)cyclopentyl)methyl sulfamate] is formulated in 10% HPbCD in sterile water and administered intravenously on days 0, 3, 7, 10, 14, 17 in the LU-01-0266 and HN-13-0007 models and on days 0, 3, 8, 11, 15, 18 in the ST-02-0004 model and in the second study with the LU-01-0030 model. Compound 1 formulation was prepared weekly and stored at room temperature in the dark.
(§3) Beam-focused radiation was delivered using 2 Gray dosed on days 0, 1, 7, and 8 or on days 0, 3, 7, and 10 in the LU-01-0266 and HN-13-0007 models. In the ST-02-0004 model 2 Gray of radiation was delivered on days 0, 1, 3, and 8. A Rad Source RS-2000 X-ray irradiator was used for therapy (Rad Source). Before radiation, animals were anesthetized by i.p. injection using 1.0% sodium pentobarbital at 80 mg/kg (Vendor: Sigma). Focused radiation was applied to each mouse at 1 Gy/min.
(§4) Tumors were measured twice weekly using vernier calipers. Tumor volumes were calculated using the following formula: (0.5×[length×width^2]). Treatment groups and dosing/treatment schedules are indicated in Tables 1a, 2a, 3a, 4a, and 5a below. Tumor size and body weight are measured approximately twice a week for the duration of the study. Mice are euthanized when their tumor volume reached approximately 1000 mm^3. Tumor growth continued to be monitored after the dosing period in some studies. In Tables 1a, 2a, 3a, 4a, and 5a tumor volumes are shown for HN-13-0014 (day 21), LU-01-0030 (day 21), the second LU-01-0030 study (day 20), LU-01-0266 (day 20), ST-02-0004 (day 21) and FIN-13-0007 (day 24), respectively. Average tumor volume is reported as a function of time for selected groups of selected studies.
(§5) Measurements from day 0 to day 20, day 21 or day 24 are analyzed as specified in Tables below. All tumor volumes have a value of 1 added to them before log10 transformation. For each animal, the log tumor volume at day 0 is subtracted from the log tumor volume on the subsequent days. This difference vs. time is used to calculate an area under the curve (AUC) for each animal using the trapezoid rule. In instances when an animal in a treatment group is removed early from the study, the last observed tumor value is carried forward through all subsequent time points. The synergy score for the combination of agents A and B is defined as 100*(mean(AUCAB)−mean(AUCA)−mean(AUCB)+mean(AUCctl))/mean(AUCctl): where AUCAB, AUCA, AUCB, and AUCctl are the AUC values for animals in the combination group, the A group, the B group, and the control group, respectively. The standard error of the synergy score is computed based on the variation in the AUC values among the animals. […] If the P-value is above 0.05, then the combination is considered to be additive. If the P-value is below 0.05, and the synergy score is less than zero, then the combination is considered to be synergistic. If the P-value is below 0.05 and the synergy score was greater than zero, but the mean AUC for the combination was lower than the lowest mean AUC among the two single agent treatments, then the combination was sub-additive. If the P-value is below 0.05 and if the synergy score was greater than zero, and the mean AUC for the combination was greater than the mean AUC for at least one of the single agent treatments, then the combination was antagonistic.

ST-02-0004 xenograft = ST-02-0004 xenograft model, Compound 1 and radiation; conditions: for Classification / Synergy score: through Day 21
Source text: as §1, with “ST-02-0004” for “LU-01-0266”, “gastric cancer” for “non-small cell lung tumor”, “162” for “173”, “6” for “10”
as §2, §3, §4, §5

HN-13-0007 xenograft = HN-13-0007 xenograft model, Compound 1 and radiation; conditions: for Classification / Synergy score: through Day 24
Source text: as §1, with “The HN-13-0007” for “The LU-01-0266”, “primary head and neck” for “primary non-small cell”, “[…] cancer” for “lung tumor”, “mm^3 HN-13-0007” for “mm^3 LU-01-0266”, “approximately 130” for “approximately 173”
as §2, §3, §4, §5

[1] = 6.25 mg/kg Compound 1 IV BIWx3 + 2 Gy Radiation Beam D 0, 1, 7, 8
[2] = 6.25 mg/kg Compound 1 IV BIWx3 + 2 Gy Radiation Beam D 0, 3, 7, 10
[3] = 6.25 mg/kg Compound 1 IV BIWx3 = D 0, 3, 7, 10, 14, 17, single agent
[4] = 15 mg/kg Compound 1 IV BIWx3 + 2 Gy Radiation Beam D 0, 1, 7, 8
[5] = 15 mg/kg Compound 1 IV BIWx3 + 2 Gy Radiation Beam D 0, 3, 7, 10
[6] = 15 mg/kg Compound 1 IV BIWx3 = D 0, 3, 7, 10, 14, 17, single agent
[7] = 6.25 mg/kg Compound 1 + 2 Gy Radiation D0, 1, 7, 8
[8] = 6.25 mg/kg Compound 1 + 2 Gy Radiation D0, 3, 7, 10
[9] = 15 mg/kg Compound 1 + 2 Gy Radiation D0, 1, 7, 8
[10] = 15 mg/kg Compound 1 + 2 Gy Radiation D0, 3, 7, 10
[11] = 6.25 mg/kg compound 1 + 2 Gy Radiation D0, 1, 3, 8
[12] = 15 mg/kg compound 1 + 2 Gy Radiation D0, 1, 3, 8

NS(=O)(=O)OC[C@H]1C[C@@H](Nc2ccnc3cc(-c4cccc(SC(F)(F)F)c4)nn23)[C@H](O)[C@@H]1O [Compound 1, ((1R,2R,3S,4R)-2,3-dihydroxy-4-(2-(3-(trifluoromethylthio)phenyl)pyrazolo[1,5-a]pyrimidin-7-ylamino)cyclopentyl)methyl sulfamate]
Tumor Volume Day 20 (LU-01-0266 xenograft; [1]): 181.6 mm^3
Tumor Volume Day 20 (LU-01-0266 xenograft; [2]): 213.4 mm^3
Tumor Volume Day 20 (LU-01-0266 xenograft; [3]): 1004.5 mm^3
Tumor Volume Day 20 (LU-01-0266 xenograft; [4]): 77.4 mm^3
Tumor Volume Day 20 (LU-01-0266 xenograft; [5]): 174.9 mm^3
Tumor Volume Day 20 (LU-01-0266 xenograft; [6]): 779 mm^3
combination effect (LU-01-0266 xenograft; Compound 1 with 2 Gy radiation): additive combination effect
anti-tumor activity compared to the vehicle control (LU-01-0266 xenograft; single agent, IV at 6.25 and 15 mg/kg BIW for 3 weeks on Days 0, 3, 7, 10, 14, 17): weak anti-tumor activity
Classification (LU-01-0266 xenograft; [7]): Additive (If the P-value is above 0.05, then the combination is considered to be additive)
Synergy score (LU-01-0266 xenograft; [7]): 14
Classification (LU-01-0266 xenograft; [8]): Additive (If the P-value is above 0.05, then the combination is considered to be additive)
Synergy score (LU-01-0266 xenograft; [8]): 15
Classification (LU-01-0266 xenograft; [9]): Additive (If the P-value is above 0.05, then the combination is considered to be additive)
Synergy score (LU-01-0266 xenograft; [9]): −25
Classification (LU-01-0266 xenograft; [10]): Additive (If the P-value is above 0.05, then the combination is considered to be additive)
Synergy score (LU-01-0266 xenograft; [10]): 12
Tumor Volume Day 21 (ST-02-0004 xenograft; 6.25 mg/kg compound 1 IV BIWx3 + 2 Gy Radiation Beam D 0, 1, 3, 8): 266.8 mm^3
Tumor Volume Day 21 (ST-02-0004 xenograft; 6.25 mg/kg compound 1 IV BIWx3 = D 0, 3, 8, 11, 15, 18, single agent): 697.1 mm^3
Tumor Volume Day 21 (ST-02-0004 xenograft; 15 mg/kg compound 1 IV BIWx3 + 2 Gy Radiation Beam D 0, 1, 3, 8): 178.2 mm^3
Tumor Volume Day 21 (ST-02-0004 xenograft; 15 mg/kg compound 1 IV BIWx3 = D 0, 3, 8, 11, 15, 18, single agent): 755.2 mm^3
combination effect (ST-02-0004 xenograft; Compound 1 at 6.25 mg/kg with 2 Gy of Radiation): additive combination effect
combination effect (ST-02-0004 xenograft; Compound 1 at 15 mg/kg with 2 Gy of Radiation): synergistic combination effect
anti-tumor activity compared to the vehicle control (ST-02-0004 xenograft; single agent, IV at 6.25 and 15 mg/kg for 3 weeks on Days 0, 3, 8, 11, 15 and 18): no significant anti-tumor activity
Classification (ST-02-0004 xenograft; [11]): Additive (If the P-value is above 0.05, then the combination is considered to be additive)
Synergy score (ST-02-0004 xenograft; [11]): 10
Classification (ST-02-0004 xenograft; [12]): Synergy (If the P-value is below 0.05, and the synergy score is less than zero, then the combination is considered to be synergistic)
Synergy score (ST-02-0004 xenograft; [12]): −49
Tumor Volume Day 24 (HN-13-0007 xenograft; [1]): 318.8 mm^3
Tumor Volume Day 24 (HN-13-0007 xenograft; [2]): 340 mm^3
Tumor Volume Day 24 (HN-13-0007 xenograft; [3]): 442.4 mm^3
Tumor Volume Day 24 (HN-13-0007 xenograft; [4]): 358.3 mm^3
Tumor Volume Day 24 (HN-13-0007 xenograft; [5]): 299.7 mm^3
Tumor Volume Day 24 (HN-13-0007 xenograft; [6]): 362.1 mm^3
tumor growth inhibition, single agent (HN-13-0007 xenograft; Compound 1 at 15 mg/kg as single agent): minimal tumor growth inhibition
combination effect (HN-13-0007 xenograft; Compound 1 with 2 Gy radiation): additive combination effect
anti-tumor activity compared to the vehicle control (HN-13-0007 xenograft; single agent, IV at 6.25 mg/kg for 3 weeks on Days 0, 3, 7, 10, 14, 17): no anti-tumor activity
Classification (HN-13-0007 xenograft; [7]): Additive (If the P-value is above 0.05, then the combination is considered to be additive)
Synergy score (HN-13-0007 xenograft; [7]): −20
Classification (HN-13-0007 xenograft; [8]): Additive (If the P-value is above 0.05, then the combination is considered to be additive)
Synergy score (HN-13-0007 xenograft; [8]): −24
Classification (HN-13-0007 xenograft; [9]): Additive (If the P-value is above 0.05, then the combination is considered to be additive)
Synergy score (HN-13-0007 xenograft; [9]): 24
Classification (HN-13-0007 xenograft; [10]): Additive (If the P-value is above 0.05, then the combination is considered to be additive)
Synergy score (HN-13-0007 xenograft; [10]): −13
